Article PMC3280214, “Structure Based Discovery of Small Molecules to Regulate the Activity of Human Insulin Degrading Enzyme” (PLoS ONE, 2012)
Where “and” joins values, the source holds several entries; their conditions need not be identical. Equal entries are not always repeated. Entries after “also recorded” stand apart in the source; their conditions may differ.

Key:
IDE [1] = target: T1, IDE (Homo sapiens, UniProt P14735); assay: Degradation of FITC-insulin-mAb by IDE; assay type: biochemical; details: for increase of IDE-mediated insulin (FITC-insulin-mAb) degradation: 20 µM compound; for effect of ATP on IDE activity for insulin degradation in presence of compound: 0.1 mM ATP; for EC50: dose response, Sigmoidal Hill 4 parameter fit; for increase of initial rate of proteolysis of FITC-insulin bound with antibody: wild type IDE, presence vs absence of compound
T1 construct: made in house; host or cells: E. coli BL21
T1 sequence (P14735 1-1019): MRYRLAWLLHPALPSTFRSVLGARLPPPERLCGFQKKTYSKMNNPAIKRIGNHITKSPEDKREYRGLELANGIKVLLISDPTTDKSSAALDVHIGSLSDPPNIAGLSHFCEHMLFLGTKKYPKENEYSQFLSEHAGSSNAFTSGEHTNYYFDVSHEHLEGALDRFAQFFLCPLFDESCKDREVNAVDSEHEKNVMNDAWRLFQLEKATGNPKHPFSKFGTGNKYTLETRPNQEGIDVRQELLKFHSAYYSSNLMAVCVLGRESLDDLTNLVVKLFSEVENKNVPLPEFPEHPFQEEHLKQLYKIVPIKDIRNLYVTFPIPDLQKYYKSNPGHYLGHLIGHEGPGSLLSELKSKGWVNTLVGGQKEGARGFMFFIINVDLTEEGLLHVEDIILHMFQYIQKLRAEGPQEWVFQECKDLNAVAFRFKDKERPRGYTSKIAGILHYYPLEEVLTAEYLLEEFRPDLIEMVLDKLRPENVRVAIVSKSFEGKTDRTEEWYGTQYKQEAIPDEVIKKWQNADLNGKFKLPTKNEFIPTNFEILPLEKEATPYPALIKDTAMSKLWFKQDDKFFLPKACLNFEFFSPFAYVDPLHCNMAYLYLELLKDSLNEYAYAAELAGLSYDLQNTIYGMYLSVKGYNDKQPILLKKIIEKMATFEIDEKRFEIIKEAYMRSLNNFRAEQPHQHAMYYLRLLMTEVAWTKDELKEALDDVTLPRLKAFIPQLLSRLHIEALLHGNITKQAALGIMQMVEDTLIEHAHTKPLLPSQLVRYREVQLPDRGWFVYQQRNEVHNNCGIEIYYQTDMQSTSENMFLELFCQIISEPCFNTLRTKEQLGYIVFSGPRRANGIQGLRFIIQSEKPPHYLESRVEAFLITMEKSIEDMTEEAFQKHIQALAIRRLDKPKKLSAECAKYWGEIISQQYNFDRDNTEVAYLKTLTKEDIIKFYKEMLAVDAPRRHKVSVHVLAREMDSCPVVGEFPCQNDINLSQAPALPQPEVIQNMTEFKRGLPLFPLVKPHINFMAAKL
Protocol: (§1) The 10 compounds given in Table 1 were subjected to further characterization and their effect was measured on the proteolytic activity of IDE using different substrates. Initially, activity assays were carried out at fixed 20 µM concentrations for all molecules to identify the effect of those compounds on IDE activity. IDE activity was quantified by monitoring the change in fluorescence for the proteolysis of fluorogenic-substrate V, FITC- insulin-bound antibody, and FAβB by recombinant human IDE purified from E.coli BL21 [6], [18], [19]. […] Also, D6 increased the amyloid-β degradation by 20% (Fig. S1C). Further, D10 enhanced IDE-mediated FITC-insulin-mAb and substrate V degradation by 290% and 65%, respectively (Fig. S1A, B). Next, an EC50 value of each molecule that enhanced IDE activity was determined with a dose response assay, where specific activity of IDE was measured with different concentrations of the lead compounds and then the plot was fit to Sigmoidal Hill-4 parameter equation. […] EC50 value for D3 on insulin degradation was approximately measured as 20 µM (Fig. S2C), whereas EC50 value for D6 on amyloid-β degradation was 2 µM (Fig. S2D). […] Among all these four compounds, D10 seems to be the potent activator of IDE, when proteolysis of insulin is considered.
In order to measure degradation of insulin by IDE, FITC-insulin is bound to the monoclonal mouse anti-human-insulin, so that the rotation of free FITC and possible changes in fluorescence polarization could be prevented. We performed enzymatic assays, using only FITC-insulin bound antibody as a background fluorescence and checked the effects of compounds on the cleavage of FITC-insulin-mAb. FITC-insulin is bound to mouse anti human insulin antibody in PBS at 37°C for 1 hour, which is higher than the optimum time required to obtain maximum binding of insulin-FITC conjugate and mAb. It is observed that 400 nM mAb completely binds to 50 nM FITC-insulin (Fig. S7). Since molecular weights of FITC-insulin and mAb are about 5.8 kDa and 60 kDa respectively, we observed very slight shift in the gel as expected. In figure S7, it is observed in lane 4 that 50 nM (100 ng) insulin is completely bound to 400 nM mAb in lane 4 (Fig. S7). […] The binding between insulin and mAb is shown by performing (%5 and %15) native polyacrylamide gel electrophoresis.
The utility of these novel compounds were tested on degradation of insulin by IDE. First insulin was labeled with FITC as described previously. Briefly, 500 mg insulin dissolved in 1.5 ml of 0.1 M Na-carbonate, at pH 7, and 0.2 mM EDTA. Then, 4.5 mg FITC was dissolved in 200 µl acetone and was added dropwise to previous solution at room temperature for 20 h ([FITC]∶[insulin], 3∶1). Finally, unreacted FITC was removed by dialysis and the FITC-insulin was stored at −20°C. The proteolysis of insulin by IDE was monitored by measuring the changes in fluorescence, where the reaction was carried out with 100 nM of FITC- insulin-mAb and IDE (80 ng) in 100 µl KH2PO4 buffer at a pH of 7.3. Reaction was carried out at 37°C for different time intervals (0–4 hours). The increase in fluorescence was monitored by using Fluoroskan Ascent FL microplate reader (Thermo).
(§2) The effect of the lead compounds on the initial rate of proteolysis of IDE was determined by measurement in fluorescence with time both in the presence and absence of the lead compounds. The kinetic data for IDE-mediated insulin, substrate V and amyloid-β degradation were plotted and fitted using SigmaPlot software (Sigmoidal, Hill, 4 parameter). For the initial rate calculations, kinetic data were fitted using SigmaPlot software (Hyperbola; Single Rectangular I, 3 Parameter).

IDE [2] = target: T1, IDE; assay: Degradation of fluorogenic substrate V by IDE; assay type: biochemical; details: for increase of IDE-mediated substrate V degradation: 20 µM compound; for EC50: dose response, Sigmoidal Hill 4 parameter fit
Protocol: as §1
To assess the utility of these novel compounds as chemical regulators for IDE activity, we used fluorescence assay with fluorogenic substrate V (7-methoxycoumarin-4-yl-acetyl-NPPGFSAFK-2, 4-dinitrophenyl). Reaction was carried out in the presence of 105 µl of 10 µl of 40 µM substrate V; 10 µl of 0.02 mg/ml of IDE in 83 µl of 30 mM KH2PO4 at pH of 7.3, and various concentrations (0–35 µM) compounds and also with various time intervals (0–4 hours). The reaction mixture was incubated at 37°C for 2.5 h. The hydrolysis of substrate V was monitored using a Tecan Safire2 microplate reader with excitation and emission wavelengths set at 300 and 395 nm, respectively.
as §2

Row | SMILES | increase of IDE-mediated insulin (FITC-insulin-mAb) degradation (IDE [1]) | effect of ATP on IDE activity for insulin degradation in presence of compound (IDE [1]) | EC50 (IDE [1]) | increase of initial rate of proteolysis of FITC-insulin bound with antibody (IDE [1]) | increase of IDE-mediated substrate V degradation (IDE [2]) | EC50 (IDE [2]) | increase of initial rate of substrate V degradation (IDE [2]; presence vs absence of compound)
1 | COc1ccc(C2C(C(=O)Nc3ccccc3)=C(C)N=c3sc(=Cc4cn(C)nc4C)c(=O)n32)cc1 (centres unmarked) [Compound D3] | 72% | did not change significantly; also recorded: no effect | ~20 µM | ~7.5 fold |  |  | 
2 | Nc1c(C(=O)Nc2ccccc2F)c2ccccn2c1C(=O)c1ccc2c(c1)CCCC2 [Compound D4] | 60% | did not change significantly; also recorded: no effect | 13 µM | ~12 fold | 36% | 7 µM | 
3 | Cc1nn(-c2ccccc2)c2nc(-c3cccc([N+](=O)[O-])c3)n3c4ccccc4nc3c2c1=O [Compound D10] | 290% and ~275% | did not change significantly; also recorded: no effect | 12 µM | ~49 fold | 65% and 60% | 13 µM | about 2 fold
